Structures are written as SMILES.

One experiment concerns the target T1, TRKA (Homo sapiens, UniProt P04629).
T1 construct: purchased Eurofins (KINOMEscan); host or cells: E. coli BL21-derived host (T7 phage) or HEK-293
Briefly: KINOMEscan competition binding, TRKA. The protocol:
(§1) Selected compounds were screened for kinase inhibition using the KINOMEscan™ assay (Eurofins) which is based on a competition binding assay that quantitatively measures the ability of a compound to compete with an immobilized, active-site directed ligand. The assay was performed by combining three components: DNA-tagged kinase; immobilized ligand; and the test compound. The ability of the test compound to compete with the immobilized ligand was measured via quantitative PCR of the DNA tag.
(§2) Kinase-tagged T7 phage strains were prepared in an E. coli host derived from the BL21 strain. E. coli were grown to log-phase and infected with T7 phage and incubated with shaking at 32° C. until lysis. The lysates were centrifuged and filtered to remove cell debris. The remaining kinases were produced in HEK-293 cells and subsequently tagged with DNA for qPCR detection. Streptavidin-coated magnetic beads were treated with biotinylated small molecule ligands for 30 minutes at room temperature to generate affinity resins for kinase assays. […] Kds were determined using an 11-point 3-fold compound dilution series with three DMSO control points. […] The kinase concentration in the eluates was measured by qPCR. […]
(§3) Binding constants (Kds) were calculated with a standard dose-response curve using the Hill equation: Response=Background+[Signal−Background/1+(Kd^Hill Slope/Dose^Hill Slope)] […]

The subject of the next experiment is parental H69 cells. As to the kind of experiment: Cell viability assay, parental H69 cells. Format: cell-based. To be noted: Homo sapiens, NCI-H69; parental H69 cells (SCLC). The protocol: (§4) Antitumor activity of the compounds and doxorubicin as a positive control was assessed by using the CellTiter-Blue Cell Viability Assay (Promega, #G8082) or CellTiter-Glow® Luminescent Cell Viability assay (Promega #G7572) according to the manufacturer's instructions. The compounds were tested at 5 or 6 concentrations in half-log increments (highest concentration 30 μM or 100 μM) in duplicate or triplicate well conditions.
(§5) Tumor cells were grown at 37° C. in a humidified atmosphere with 5% CO2 in RPMI 1640 or DMEM medium, supplemented with 10% (v/v) fetal calf serum and 50 μg/ml gentamicin for up to 20 passages, and were passaged once or twice weekly. Cells were harvested using TrypLE or PBS buffer containing 1 mM EDTA, and the percentage of viable cells was determined using a CASY Model TI cell counter (OMNI Life Science). Cells were harvested from exponential phase cultures, counted and plated in 96 well flat-bottom microtiter plates at a cell density depending on the cell line's growth rate (4,000-20,000 cells/well depending on the cell line's growth rate, up to 60,000 for hematological cancer cell lines) in RPMI 1640 or DMEM medium supplemented with 10% (v/v) fetal calf serum and 50 μg/ml gentamicin (140 μl/well). […] Viability of cells was quantified by the CellTiter-Blue® cell viability assay (Promega G8081) or CellTiter-Glow® Luminescent Cell Viability assay (Promega #G7572). […]

A further experiment deals with ovarian cancer cell. As to the kind of experiment: Cell viability, ovarian cancer cells (panel statement). Format: cell-based. As to conditions: Table 17; read-out: IC50, ovarian cancer cell growth. The protocol:
as §4, §5

Another experiment relates to pancreatic cancer cell. Briefly: Cell viability, pancreatic cancer cells (panel statement). Format: cell-based. As to conditions: text summary of Tables 18A and 18B, read-out: IC50, pancreatic cancer cell growth. The protocol: as §4, §5
A further experiment relates to BT-474. Briefly: Cell viability assay, BT-474. Format: cell-based. To be noted: Homo sapiens; breast carcinoma cell line BT-474. The protocol: as §4, §5
The test system of the next experiment is CALU-6. As to the kind of experiment: Cell viability assay, CALU-6. To be noted: Homo sapiens; lung carcinoma cell line CALU-6. Format: cell-based. The procedure:
as §4, §5

Another experiment relates to prostate cancer cell. As to the kind of experiment: Cell viability, prostate cancer cells (panel statement). Format: cell-based. As to conditions: summary of Table 20; read-out: IC50, prostate cancer cell growth. The procedure: as §4, §5
In a further experiment the target is T2, KIT(D816V) (Homo sapiens, UniProt P10721, D816V).
T2 construct: purchased Eurofins (KINOMEscan); host or cells: E. coli BL21-derived host (T7 phage) or HEK-293
T2 sequence (P10721 26-976 D816V): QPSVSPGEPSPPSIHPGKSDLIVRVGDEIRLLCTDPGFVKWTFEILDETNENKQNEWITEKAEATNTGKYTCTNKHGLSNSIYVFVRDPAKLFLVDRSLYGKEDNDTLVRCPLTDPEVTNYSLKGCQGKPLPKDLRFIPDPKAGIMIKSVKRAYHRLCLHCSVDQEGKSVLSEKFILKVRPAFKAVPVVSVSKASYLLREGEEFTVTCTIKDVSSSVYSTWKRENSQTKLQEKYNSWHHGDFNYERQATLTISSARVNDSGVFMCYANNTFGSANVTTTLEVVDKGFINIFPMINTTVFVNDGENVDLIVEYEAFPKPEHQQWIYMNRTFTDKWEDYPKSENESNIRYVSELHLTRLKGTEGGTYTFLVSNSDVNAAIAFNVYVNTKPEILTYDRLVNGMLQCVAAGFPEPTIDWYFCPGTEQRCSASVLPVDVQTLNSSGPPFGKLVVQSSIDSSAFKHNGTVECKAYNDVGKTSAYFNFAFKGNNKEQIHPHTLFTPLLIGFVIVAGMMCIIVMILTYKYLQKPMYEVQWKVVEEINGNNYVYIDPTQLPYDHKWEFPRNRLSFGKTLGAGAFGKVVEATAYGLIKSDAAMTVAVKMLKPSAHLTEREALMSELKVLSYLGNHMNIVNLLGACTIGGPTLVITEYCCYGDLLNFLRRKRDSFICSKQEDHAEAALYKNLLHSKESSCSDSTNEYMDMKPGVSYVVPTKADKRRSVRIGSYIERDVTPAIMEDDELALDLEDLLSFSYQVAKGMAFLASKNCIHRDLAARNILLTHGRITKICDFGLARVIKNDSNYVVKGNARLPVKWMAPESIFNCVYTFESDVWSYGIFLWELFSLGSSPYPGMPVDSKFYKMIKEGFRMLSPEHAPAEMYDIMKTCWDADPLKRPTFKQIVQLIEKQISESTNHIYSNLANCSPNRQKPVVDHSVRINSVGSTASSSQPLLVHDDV
Briefly: KINOMEscan competition binding, KIT(D816V). The procedure:
as §1, §2, §3

Experiment [1] addresses T3, RSK2(Kin.Dom.1-N-terminal) (Homo sapiens, UniProt P51812).
T3 construct: Kin.Dom.1; purchased Eurofins (KINOMEscan); host or cells: E. coli BL21-derived host (T7 phage) or HEK-293
Briefly: KINOMEscan competition binding, RSK2(Kin.Dom.1-N-terminal). The procedure: as §1, §2, §3

The target in the next experiment is T4, ADCK3 (Homo sapiens, UniProt Q8NI60).
T4 construct: purchased Eurofins (KINOMEscan); host or cells: E. coli BL21-derived host (T7 phage) or HEK-293
T4 sequence (Q8NI60 163-647): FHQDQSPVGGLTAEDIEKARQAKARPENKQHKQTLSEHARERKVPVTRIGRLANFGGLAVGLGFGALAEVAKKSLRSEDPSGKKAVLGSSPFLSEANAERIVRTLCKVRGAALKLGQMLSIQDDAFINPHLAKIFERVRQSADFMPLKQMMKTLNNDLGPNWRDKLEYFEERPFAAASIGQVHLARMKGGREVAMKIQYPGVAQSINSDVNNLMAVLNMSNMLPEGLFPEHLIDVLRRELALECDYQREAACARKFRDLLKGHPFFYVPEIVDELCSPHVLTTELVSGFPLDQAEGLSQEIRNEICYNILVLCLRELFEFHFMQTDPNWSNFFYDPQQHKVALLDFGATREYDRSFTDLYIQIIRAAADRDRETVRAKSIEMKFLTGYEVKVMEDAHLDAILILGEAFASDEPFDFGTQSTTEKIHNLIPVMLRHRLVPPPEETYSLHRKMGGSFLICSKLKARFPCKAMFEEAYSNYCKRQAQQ
As to the kind of experiment: KINOMEscan competition binding, ADCK3. The protocol: as §1, §2, §3

In another experiment the test system is H69AR. Briefly: Cell viability assay, H69AR. Format: cell-based. As to conditions: SCLC doxorubicin resistant cell line H69AR. The procedure: as §4, §5
In the next experiment the test system is Panc-1. As to the kind of experiment: Cell viability assay, Panc-1. Format: cell-based. As to conditions: pancreatic carcinoma cell line Panc-1. The protocol: as §4, §5

T1 sequence (P04629 33-796): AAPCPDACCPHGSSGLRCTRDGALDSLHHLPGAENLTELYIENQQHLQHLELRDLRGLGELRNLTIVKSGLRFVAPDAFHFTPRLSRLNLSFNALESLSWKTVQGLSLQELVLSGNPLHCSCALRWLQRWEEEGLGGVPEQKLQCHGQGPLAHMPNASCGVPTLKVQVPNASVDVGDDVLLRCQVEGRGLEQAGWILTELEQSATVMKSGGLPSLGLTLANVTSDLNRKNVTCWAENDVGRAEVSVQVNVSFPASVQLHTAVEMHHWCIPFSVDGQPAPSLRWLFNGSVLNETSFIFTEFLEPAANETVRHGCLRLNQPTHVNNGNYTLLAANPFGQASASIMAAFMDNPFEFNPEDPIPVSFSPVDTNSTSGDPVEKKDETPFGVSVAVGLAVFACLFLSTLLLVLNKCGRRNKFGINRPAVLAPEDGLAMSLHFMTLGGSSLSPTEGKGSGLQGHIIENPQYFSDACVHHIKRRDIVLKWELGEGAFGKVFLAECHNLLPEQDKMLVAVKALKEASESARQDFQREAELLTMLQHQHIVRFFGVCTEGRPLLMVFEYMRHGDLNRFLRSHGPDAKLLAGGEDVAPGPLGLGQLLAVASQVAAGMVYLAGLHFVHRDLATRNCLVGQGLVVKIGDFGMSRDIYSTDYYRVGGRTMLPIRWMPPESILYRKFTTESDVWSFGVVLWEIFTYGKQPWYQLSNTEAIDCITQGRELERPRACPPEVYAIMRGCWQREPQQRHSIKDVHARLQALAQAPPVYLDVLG
T3 sequence (P51812 68-327 limits assumed): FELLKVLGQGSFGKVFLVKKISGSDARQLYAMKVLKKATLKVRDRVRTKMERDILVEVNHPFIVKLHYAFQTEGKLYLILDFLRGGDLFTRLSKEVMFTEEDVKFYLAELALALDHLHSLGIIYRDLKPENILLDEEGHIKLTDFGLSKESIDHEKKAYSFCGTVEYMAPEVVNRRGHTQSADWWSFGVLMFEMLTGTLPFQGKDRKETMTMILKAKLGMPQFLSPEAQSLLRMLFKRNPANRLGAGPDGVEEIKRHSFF

For the molecule `COc1c(O)ccc2c(=O)c(O)c(-c3ccc(CCCC[P+](c4ccccc4)(c4ccccc4)c4ccccc4)cc3)oc12` [SND190, (4-(4-(3,7-Dihydroxy-8-methoxy-4-oxo-4H1-chromen-2-yl)phenyl)butyl)triphenylphosphonium bromide], the dissociation constant Kd at TRKA is 2300 nM; at KIT(D816V), 930 nM; in [1], 1700 nM; on ADCK3, 100 nM. Also, the half-maximal inhibitory concentration (IC50) in the experiment on parental H69 cells was 1420 nM; in the experiment with ovarian cancer cell it was under 20000 nM; with pancreatic cancer cell, under 20000 nM; in the experiment with BT-474 it was 1900 nM; in the experiment on CALU-6, 2390 nM; with prostate cancer cell, under 10000 nM.
In the case of `O=c1cc(-c2ccc(CCC[P+](c3ccccc3)(c3ccccc3)c3ccccc3)cc2)oc2c(O)c(O)ccc12` [SND200, (3-(4-(7,8-Dihydroxy-4-oxo-4H1-chromen-2-yl)phenyl)propyl)triphenylphosphonium bromide], the half-maximal inhibitory concentration (IC50) in the experiment with H69AR is 4000 to 25000 nM; in the experiment on Panc-1, 1330 nM.

(Values after patent US20240124503A1, “HETEROAROMATIC PHOSPHONIUM SALTS AND THEIR USE TREATING CANCER” (FLORATEK PHARMA S.A., priority 2021, published 2024).)
